Data taken from patent US9445594B2, “Molecules having certain pesticidal utilities, intermediates, compositions, and processes, related thereto” (priority 2014, dated 2016).

Experiments:
Assay type in all cases: in vivo
[1] = test system: Corn Earworm (Helicoverpa zea, HELIZE) ("CEW"); test: Bioassays on CEW, 128-well diet tray assay; details: 168 h, second instar larvae, 50 μg/cm^2 on artificial diet, 25° C., five to seven days, average of eight wells, read-out: CEW % Control (or Mortality) rating
Procedure: Certain molecules disclosed in this document were tested against BAW, CEW, and CL using procedures described in the following examples. In the reporting of the results, the “BAW, CEW, & CL Rating Table” was used (See Table Section).
Bioassays on CEW were conducted using a 128-well diet tray assay. one to five second instar CEW larvae were placed in each well (3 mL) of the diet tray that had been previously filled with 1 mL of artificial diet to which 50 μg/cm^2 of the test compound (dissolved in 50 μL of 90:10 acetone-water mixture) had been applied (to each of eight wells) and then allowed to dry. Trays were covered with a clear self-adhesive cover, and held at 25° C., 14:10 light-dark for five to seven days. Percent mortality was recorded for the larvae in each well; activity in the eight wells was then averaged. The results are indicated in the table entitled “Table ABC: Biological Results” (See Table Section). Bioassays on CL

[2] = test system: Beet Armyworm (Spodoptera exigua, LAPHEG) ("BAW"); test: Bioassays on BAW, 128-well diet tray assay; details: 168 h, second instar larvae, 50 μg/cm^2 on artificial diet, 25° C., five to seven days, average of eight wells, read-out: BAW % Control (or Mortality) rating
Outline: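 One to five second-instar larvae were placed per well on artificial diet surface-treated with 50 μg/cm^2 compound from 90:10 acetone-water, dried before infestation. Trays were held at 25 °C, 14:10 light-dark, for five to seven days. Percent mortality was averaged over eight wells.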

[3] = test system: Yellow Fever Mosquito (Aedes aegypti, AEDSAE) ("YFM"); test: Bioassays on YFM, 96-well plate larval assay; details: about 1 day-old larvae, from 4000 ppm DMSO master plate diluted, room temperature, scored after 3 days
Outline: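 Compounds from 4000 ppm DMSO master plates, diluted in 90:10 water:acetone, dispensed into 96-well plates, six replicates. About 1-day-old larvae added in liver-powder water. Wells covered, held 3 days at room temperature, then scored for mortality.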

[4] = test system: Cabbage Looper (Trichoplusia ni, TRIPNI) ("CL"); test: Bioassays on CL, 128-well diet tray assay; details: 168 h, second instar larvae, 50 μg/cm^2 on artificial diet, 25° C., five to seven days, average of eight wells, read-out: CL % Control (or Mortality) rating
Outline: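 Second-instar larvae (one to five per well) on artificial diet surface-treated with 50 μg/cm^2 compound in 90:10 acetone-water, eight wells per treatment. Held at 25° C., 14:10 light-dark for five to seven days. Percent mortality scored per well and averaged over the eight wells.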

[5] = test system: Green Peach Aphid (Myzus persicae, MYZUPE) ("GPA"); test: Bioassays on GPA, foliar spray of infested cabbage seedlings; details: 72 h, 200 ppm spray on cabbage seedlings, graded after three days, Abbott corrected % control, read-out: GPA % Control (or Mortality) rating
Procedure: Certain molecules disclosed in this document were tested against GPA using procedures described in the following example. In the reporting of the results, the “GPA Rating Table” was used (See Table Section).
Cabbage seedlings grown in 3-inch pots, with 2-3 small (3-5 cm) true leaves, were used as test substrate. The seedlings were infested with 20-50 GPA (wingless adult and nymph stages) one day prior to chemical application. Four pots with individual seedlings were used for each treatment. Test compounds (2 mg) were dissolved in 2 mL of acetone/methanol (1:1) solvent, forming stock solutions of 1000 ppm test compound. The stock solutions were diluted 5× with 0.025% Tween 20 in water to obtain the solution at 200 ppm test compound. A hand-held aspirator-type sprayer was used for spraying a solution to both sides of […] leaves until runoff. Reference plants (solvent check) were sprayed with the diluent only containing 20% by volume of acetone/methanol (1:1) solvent. Treated plants were held in a holding room for three days at approximately 25° C. and ambient relative humidity (RH) prior to grading. Evaluation was conducted by counting the number of live aphids per plant under a microscope. Percent Control was measured by using Abbott's correction formula (W. S. Abbott, “A Method of Computing the Effectiveness of an Insecticide” J. Econ. Entomol. 18 (1925), pp. 265-267) as follows. Corrected % Control=100*(X−Y)/X • where • X=No. of live aphids on solvent check plants and • Y=No. of live aphids on treated plants

With `CC(C)c1ccccc1NC(=S)Nc1ccc(-c2ncn(-c3ccc(OC(F)(F)F)cc3)n2)cc1` [F3, 1-(2-isopropylphenyl)-3-(4-(1-(4-(trifluoromethoxy)phenyl)-1H-1,2,4-triazol-3-yl)phenyl)thiourea] the mortality at 50 µg/cm2 [1] was 50 to 100% and the mortality at 50 µg/cm2 [2] was 50 to 100%.
For `N#Cc1ccc(NC(=S)Nc2ccc(-c3ncn(-c4ccc(OC(F)(F)F)cc4)n3)cc2)cc1` [F7, 1-(4-Cyanophenyl)-3-(4-(1-(4-(trifluoromethoxy)phenyl)-1H-1,2,4-triazol-3-yl)phenyl)thiourea], the mortality at 50 µg/cm2 [1] was 0% and the mortality at 50 µg/cm2 [2] was 0%.
Work on `FC(F)(F)Oc1ccc(-n2cnc(-c3ccc(NC(=S)Nc4cnccc4C(F)(F)F)cc3)n2)cc1` [F12, 1-(4-(1-(4-(trifluoromethoxy)phenyl)-1H-1,2,4-triazol-3-yl)phenyl)-3-(4-(trifluoromethyl)pyridin-3-yl)thiourea] yielded a mortality at 50 µg/cm2 [1] of 0% and a mortality at 50 µg/cm2 [2] of 0%.
`CCOc1ccc(NC(=S)Nc2ccc(-c3ncn(-c4ccc(OC(F)(F)F)cc4)n3)cc2)cn1` [F14, 1-(6-Ethoxypyridin-3-yl)-3-(4-(1-(4-(trifluoromethoxy)phenyl)-1H-1,2,4-triazol-3-yl)phenyl)thiourea] gave a mortality at 50 µg/cm2 [1] of 0% and a mortality at 50 µg/cm2 [2] of 0%.
For `O=C(Nc1ccc(F)cc1)Nc1ccc(-c2ncn(-c3ccc(OC(F)(F)F)cc3)n2)cc1` [F17, 1-(4-fluorophenyl)-3-(4-(1-(4-(trifluoromethoxy)phenyl)-1H-1,2,4-triazol-3-yl)phenyl)urea], the mortality at 50 µg/cm2 [1] was 0%, the mortality at 50 µg/cm2 [2] was 0% and the “YFM % Control (or Mortality) rating” value [3] was “D (No activity noticed in this bioassay)”.
In the case of `FC(F)(F)Oc1ccc(-n2cnc(-c3ccc(NC(=S)Nc4ccc5ccccc5c4)cc3)n2)cc1` [F25, 1-(Naphthalen-2-yl)-3-(4-(1-(4-(trifluoromethoxy)phenyl)-1H-1,2,4-triazol-3-yl)phenyl)thiourea], the mortality at 50 µg/cm2 [1] is reported as 50 to 100% and the mortality at 50 µg/cm2 [2] is reported as 50 to 100%.
Molecule `CSc1ccc(NC(=S)Nc2ccc(-c3ncn(-c4ccc(OC(F)(F)F)cc4)n3)cc2)cn1` [F27, 1-(6-(Methylthio)pyridin-3-yl)-3-(4-(1-(4-(trifluoromethoxy)phenyl)-1H-1,2,4-triazol-3-yl)phenyl)thiourea] has a mortality at 50 µg/cm2 [1] of 0% and a mortality at 50 µg/cm2 [2] of 0%.
Work on `COc1ccc(NC(=S)Nc2ccc(-c3ncn(-c4ccc(OC(F)(F)F)cc4)n3)cc2)c(C)c1` [F43, 1-(4-Methoxy-2-methylphenyl)-3-(4-(1-(4-(trifluoromethoxy)phenyl)-1H-1,2,4-triazol-3-yl)phenyl)thiourea] yielded a mortality at 50 µg/cm2 [1] of 50 to 100% and a mortality at 50 µg/cm2 [2] of 50 to 100%.
In the case of `O=C(Nc1ccc(-c2ncn(-c3ccc(OC(F)(F)F)cc3)n2)cc1)Nc1ccccc1N1CCOCC1` [F69, 1-(2-Morpholinophenyl)-3-(4-(1-(4-(trifluoromethoxy)phenyl)-1H-1,2,4-triazol-3-yl)phenyl)urea], the mortality at 50 µg/cm2 [2] is reported as 50 to 100%, the “YFM % Control (or Mortality) rating” value [3] is reported as “A (80-100)” and the mortality at 50 µg/cm2 [4] is reported as 50 to 100%. For the same molecule, the mortality at 200 ppm [5] was 0%.
Work on `COc1ccc(NC(=S)Nc2ccc(-c3ncn(-c4ccc(OC(F)(F)F)cc4)n3)cc2)cc1` [F71, 1-(4-Methoxyphenyl)-3-(4-(1-(4-(trifluoromethoxy)phenyl)-1H-1,2,4-triazol-3-yl)phenyl)thiourea] yielded a mortality at 50 µg/cm2 [1] of 50 to 100% and a mortality at 50 µg/cm2 [2] of 50 to 100%.
With `Cc1ccccc1-c1ccccc1NC(=O)NCCCc1ccc(-c2ncn(-c3ccc(OC(F)(F)F)cc3)n2)cc1` [FA1, 1-(2′-Methyl-[1,1′-biphenyl]-2-yl)-3-(3-(4-(1-(4-(trifluoromethoxy)phenyl)-1H-1,2,4-triazol-3-yl)phenyl)propyl)urea] the mortality at 50 µg/cm2 [2] was 0%, the “YFM % Control (or Mortality) rating” value [3] was “A (80-100)” and the mortality at 50 µg/cm2 [4] was 50 to 100%. For the same molecule, the mortality at 200 ppm [5] was 0%.
With `Cc1ccccc1-c1cccc(NC(=O)NCCCc2ccc(-c3ncn(-c4ccc(OC(F)(F)F)cc4)n3)cc2)c1` [FA2, 1-(2′-Methyl-[1,1′-biphenyl]-3-yl)-3-(3-(4-(1-(4-(trifluoromethoxy)phenyl)-1H-1,2,4-triazol-3-yl)phenyl)propyl)urea] the mortality at 50 µg/cm2 [2] was 0%, the “YFM % Control (or Mortality) rating” value [3] was “D (No activity noticed in this bioassay)” and the mortality at 50 µg/cm2 [4] was 0%. It also gave a mortality at 200 ppm [5] of 0%.
In the case of `Cc1cc(C)cc(NC(=O)NCCCc2ccc(-c3ncn(-c4ccc(OC(F)(F)F)cc4)n3)cc2)c1` [P1, 1-(3,5-Dimethylphenyl)-3-(3-(4-(1-(4-(trifluoromethoxy)phenyl)-1H-1,2,4-triazol-3-yl)phenyl)propyl)urea], the mortality at 50 µg/cm2 [2] is reported as 0%, the “YFM % Control (or Mortality) rating” value [3] is reported as “D (No activity noticed in this bioassay)” and the mortality at 50 µg/cm2 [4] is reported as 0%. The mortality at 200 ppm [5] was 0%.
For `CC(C)c1cccc(NC(=O)NCCCc2ccc(-c3ncn(-c4ccc(OC(F)(F)F)cc4)n3)cc2)c1` [P2, 1-(3-Isopropylphenyl)-3-(3-(4-(1-(4-(trifluoromethoxy)phenyl)-1H-1,2,4-triazol-3-yl)phenyl)propyl)urea], the mortality at 50 µg/cm2 [2] was 0 to 50%, the “YFM % Control (or Mortality) rating” value [3] was “D (No activity noticed in this bioassay)” and the mortality at 50 µg/cm2 [4] was 0%. The mortality at 200 ppm [5] was 0%.
With `COc1ccc(NC(=O)NCCCc2ccc(-c3ncn(-c4ccc(OC(F)(F)F)cc4)n3)cc2)c(C)c1` [P3, 1-(4-Methoxy-2-methylphenyl)-3-(3-(4-(1-(4-(trifluoromethoxy)phenyl)-1H-1,2,4-triazol-3-yl)phenyl)propyl)urea] the mortality at 50 µg/cm2 [2] was 0%, the “YFM % Control (or Mortality) rating” value [3] was “D (No activity noticed in this bioassay)” and the mortality at 50 µg/cm2 [4] was 0%. The mortality at 200 ppm [5] was 0%.
With `CCc1cccc(C)c1NC(=O)NCCCc1ccc(-c2ncn(-c3ccc(OC(F)(F)F)cc3)n2)cc1` [P5, 1-(2-Ethyl-6-methylphenyl)-3-(3-(4-(1-(4-(trifluoromethoxy)phenyl)-1H-1,2,4-triazol-3-yl)phenyl)propyl)urea] the mortality at 50 µg/cm2 [2] was 0%, the “YFM % Control (or Mortality) rating” value [3] was “D (No activity noticed in this bioassay)” and the mortality at 50 µg/cm2 [4] was 0%. It also gave a mortality at 200 ppm [5] of 0%.
In the case of `Cc1ccc(C(C)C)c(NC(=O)NCCCc2ccc(-c3ncn(-c4ccc(OC(F)(F)F)cc4)n3)cc2)c1` [P6, 1-(2-Isopropyl-5-methylphenyl)-3-(3-(4-(1-(4-(trifluoromethoxy)phenyl)-1H-1,2,4-triazol-3-yl)phenyl)propyl)urea], the mortality at 50 µg/cm2 [2] is reported as 50 to 100%, the “YFM % Control (or Mortality) rating” value [3] is reported as “A (80-100)” and the mortality at 50 µg/cm2 [4] is reported as 50 to 100%. It also gave a mortality at 200 ppm [5] of 0%.
For `O=C(NCCCc1ccc(-c2ncn(-c3ccc(OC(F)(F)F)cc3)n2)cc1)Nc1cccc(-c2ccccc2)c1` [P7, 1-([1,1′-biphenyl]-3-yl)-3-(3-(4-(1-(4-(trifluoromethoxy)phenyl)-1H-1,2,4-triazol-3-yl)phenyl)propyl)urea], the mortality at 50 µg/cm2 [2] was 0%, the “YFM % Control (or Mortality) rating” value [3] was “D (No activity noticed in this bioassay)” and the mortality at 50 µg/cm2 [4] was 0%. The mortality at 200 ppm [5] was 0%.
With `O=C(NCCCc1ccc(-c2ncn(-c3ccc(OC(F)(F)F)cc3)n2)cc1)Nc1ccccc1-c1ccccc1` [P9, 1-([1,1′-Biphenyl]-2-yl)-3-(3-(4-(1-(4-(trifluoromethoxy)phenyl)-1H-1,2,4-triazol-3-yl)phenyl)propyl)urea] the mortality at 50 µg/cm2 [2] was 0%, the “YFM % Control (or Mortality) rating” value [3] was “B (More than 0 - Less than 80)” and the mortality at 50 µg/cm2 [4] was 50 to 100%. The mortality at 200 ppm [5] was 0%.
